One experiment concerns the target GST-MDM2 (1 – 188) (Homo sapiens, UniProt Q00987). Put plainly: Fluorescence polarisation (FP) assay, displacement of Texas Red labeled wild-type p53 peptide from MDM2. It is filed as binding. The following applies: for activity in the FP-assay (in words): tested concentrations up to 100 μM; for IC50: 1 μM GST-MDM2 (1-188), 15 nM Texas Red labeled wild-type p53 peptide, 1 h at r.t., 95% CI. On the procedure: To evaluate the 2,5-DKPs as potential MDM2-p53 inhibitors, the same FP-assay was used as for the type III inhibitors.
The FP assay was performed in black 384-well microtiter plates at a final volume of 20 μL per well. […] Two to seven independent experiments of normalized data were combined into a data set, and then fit using a non-linear regression in GraphPad Prism with the formula log(inhibitor) vs. response – Variable slope (four parameters). Additionally the residuals of the curve fit were plotted to determine the fit of the theoretical curve. IC50 and 95% confidence intervals (CI) were determined from these graphs.
For orientation: In fluorescence polarisation assays a small probe gives low polarisation when free and higher when bound to something large.

Experiment [1] addresses T1, MDM2 (Homo sapiens, UniProt Q00987). Put plainly: Surface plasmon resonance (SPR) binding to biotinylated MDM2. The settings on record: 1:1 interaction model, 20 °C; for Rmax (RU): SPR. On the procedure: To confirm binding to the target, surface plasmon resonance (SPR) was used to study interactions of 52RR and 52RS with MDM2 [41, 42].
MDM2 was minimally biotinylated by reaction with EZ-Link Sulfo-NHS-LC-LC-Biotin (Thermo Scientific). The biotin reagent was added to the protein at a 0.5:1 molar ratio, and the reaction was incubated on ice for 3-4 hours. Unconjugated biotin was removed by processing the samples through two Zeba Spin Desalting Columns (Thermo Scientific) that had been equilibrated with storage buffer (20 mM Bis-Tris pH 6.5, 200 mM NaCl, 20 mM dithiothreitol, 20% glycerol). Bovine serum albumin (BSA) was added to the reaction at a final concentration of 0.1 mg/mL immediately prior to processing through the spin columns to improve recovery.^2 The biotinylated protein was aliquotted, flash-frozen and stored at -80° C for use in subsequent binding experiments.
SPR experiments were conducted at 20 °C using a SensiQ Pioneer optical biosensor (SensiQ Technologies). Neutravidin (Thermo Scientific) was covalently immobilized on a polysaccharide hydrogel-coated gold surface (COOH5 chip; SensiQ Technologies) using routine amine coupling chemistry in immobilization buffer (10 mM HEPES pH 7.4, 150 mM NaCl, 0.005% Tween20). Carboxyl groups on the hydrogel were activated with N-ethyl-N´-(3-dimethylaminopropyl) carbodiimide (EDC) and N-hydroxysuccinimide (NHS), and neutravidin was injected in 10 mM sodium acetate pH 5.0 until immobilization levels of ~3000-3400 RU were achieved. Remaining active sites were blocked by reaction with ethanolamine. The instrument was primed with binding buffer (20 mM Tris pH 8.0, 100 mM NaCl, 5 mM dithiothreitol, 0.005% Tween20, 5% glycerol, 5% DMSO), and biotinylated MDM2 was injected until ~1070 RU of protein was captured. Unoccupied biotin-binding sites of neutravidin on both the reference and protein surfaces were blocked with amine-PEG2-biotin (Thermo Scientific) to minimize potential non-specific binding by the compounds.^3
The data were processed, double-referenced, solvent corrected and analyzed^4 using the software package Qdat (version 2.5.5.12 , BioLogic Software). The equilibrium dissociation constants (KD) were determined by fitting the data to a 1:1 (Langmuir) interaction model.
(In general: Surface plasmon resonance follows binding to a sensor surface in real time, without labels.)

Experiment [2] addresses T1, MDM2. Put plainly: WaterLOGSY NMR binding experiment. The following applies: compound 200 µM, MDM2 protein 5 µM, 298 K. On the procedure: All NMR experiments were performed at 298 K (25 °C) using a Bruker Avance 600 MHz spectrometer equipped with TCI cryogenic gradient probe. Compounds (20 mM stock solution in DMSO-D6) were added to buffer (25mM HEPES, pH7.2, 150 mM NaCl, 2mM TCEP) or buffer containing MDM2 protein (5 µM) to give final compound concentration of 200 µM. One-dimensional (1D) ^1H- and WaterLOGSY (water-ligand observed via gradient spectroscopy)^8 NMR spectra were recorded for compounds, protein, and compounds plus protein, respectively. NMR spectra were processed using Bruker Topspin software.

“And” between values parts separate entries of the source, which are not always exact repeats. Identical values can stand only once.

T1 sequence (Q00987 whole entry): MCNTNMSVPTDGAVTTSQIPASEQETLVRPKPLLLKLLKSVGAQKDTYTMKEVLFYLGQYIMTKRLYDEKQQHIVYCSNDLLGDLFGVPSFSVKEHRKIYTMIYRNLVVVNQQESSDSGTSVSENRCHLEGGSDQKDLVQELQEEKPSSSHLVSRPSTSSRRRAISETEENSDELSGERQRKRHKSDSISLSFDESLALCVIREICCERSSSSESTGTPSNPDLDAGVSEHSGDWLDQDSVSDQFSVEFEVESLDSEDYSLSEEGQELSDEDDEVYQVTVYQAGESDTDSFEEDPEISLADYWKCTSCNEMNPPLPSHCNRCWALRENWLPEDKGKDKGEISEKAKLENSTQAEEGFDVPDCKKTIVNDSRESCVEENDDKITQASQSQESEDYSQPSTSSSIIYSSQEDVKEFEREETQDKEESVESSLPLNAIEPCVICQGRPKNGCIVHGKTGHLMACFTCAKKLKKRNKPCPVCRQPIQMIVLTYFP
Sequence of GST-MDM2 (1 – 188) (Q00987 1-188): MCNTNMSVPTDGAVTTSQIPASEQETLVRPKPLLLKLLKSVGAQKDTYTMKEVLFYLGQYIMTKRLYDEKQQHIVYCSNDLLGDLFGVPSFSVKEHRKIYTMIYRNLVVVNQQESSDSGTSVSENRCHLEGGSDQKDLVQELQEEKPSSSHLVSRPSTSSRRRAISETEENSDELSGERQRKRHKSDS

`CC(C)(C)OC(=O)CN1C(=O)[C@@H](c2ccc(Cl)cc2)N(c2ccc(Cl)cc2)C(=O)[C@H]1Cc1ccccc1` [44RR, (3R,6R)-3-Benzyl-1,6-(di-4-chlorophenyl)-4-(tert-butoxy-carbonyl-methyl)-piperazine-2,5-dione]: the “activity in the FP-assay (in words)” value at GST-MDM2 (1 – 188) is “inactive”.
Take `CC(C)(C)OC(=O)CN1C(=O)[C@H](c2ccc(Cl)cc2)N(c2ccc(Cl)cc2)C(=O)[C@H]1Cc1ccccc1` [44RS, (3R,6S)-3-Benzyl-1,6-(di-4-chlorophenyl)-4-(tert-butoxy-carbonyl-methyl)-piperazine-2,5-dione]: the “activity in the FP-assay (in words)” value on GST-MDM2 (1 – 188) was “inactive”.
In general, IC50 refers to the concentration that gives 50% inhibition. A lower IC50 goes with greater potency. `O=C(O)CN1C(=O)[C@@H](c2ccc(Cl)cc2)N(c2ccc(Cl)cc2)C(=O)[C@H]1Cc1ccccc1` [52RR, (3R,6R)-3-Benzyl-1,6-(di-4-chlorophenyl)-4-(carboxy-methyl)-piperazine-2,5-dione]: the “Rmax (RU)” value at MDM2 [1] is recorded as 16.6 (± 0.2) RU. Moreover, the “binding to MDM2 by WaterLOGSY (in words)” value on MDM2 [2] is given as “confirmed binding”. Further, the IC50 at GST-MDM2 (1 – 188) is 31.4 µM and 31 µM.
In the case of `O=C(O)CN1C(=O)[C@H](c2ccc(Cl)cc2)N(c2ccc(Cl)cc2)C(=O)[C@H]1Cc1ccccc1` [52RS, (3R,6S)-3-Benzyl-1,6-(di-4-chlorophenyl)-4-(carboxy-methyl)-piperazine-2,5-dione], at MDM2 [1], the “Rmax (RU)” value is 16.8 (± 0.2) RU. Also, at MDM2 [2], the “binding to MDM2 by WaterLOGSY (in words)” value was “confirmed binding”. At GST-MDM2 (1 – 188), this molecule displayed a concentration for half-maximal inhibition (IC50) of 28 µM.
Consider `COc1ccc(C2=N[C@@H](c3ccc(Cl)cc3)[C@@H](c3ccc(Cl)cc3)N2C(=O)N2CCNC(=O)C2)c(OC(C)C)c1` [Nutlin-3a], for which, on MDM2 [1] (SPR kinetic analysis), the “ka (M^-1s^-1)” value is recorded as 9.10 (± 0.01) x 10^5 M^-1s^-1 and the “kd (s^-1)” value is on record as 2.80 (± 0.01) x 10^-2 s^-1. For the same molecule, the “Rmax (RU)” value at MDM2 [1] is 28.4 (± 0.1) RU.

These data come from paper PMC4591261, “Design, Synthesis and Evaluation of 2,5-Diketopiperazines as Inhibitors of the MDM2-p53 Interaction” (PLoS ONE, 2015).
